From publication PMC9000610, “Computational Analysis and Biological Activities of Oxyresveratrol Analogues, the Putative Cyclooxygenase-2 Inhibitors” (Molecules, 2022) come the findings set out here.

The target of one series is T1, human COX-2 (Homo sapiens, UniProt P35354).
T1 construct: purchased Cayman Chemicals USA Item no; 701080
T1 sequence (P35354 18-604): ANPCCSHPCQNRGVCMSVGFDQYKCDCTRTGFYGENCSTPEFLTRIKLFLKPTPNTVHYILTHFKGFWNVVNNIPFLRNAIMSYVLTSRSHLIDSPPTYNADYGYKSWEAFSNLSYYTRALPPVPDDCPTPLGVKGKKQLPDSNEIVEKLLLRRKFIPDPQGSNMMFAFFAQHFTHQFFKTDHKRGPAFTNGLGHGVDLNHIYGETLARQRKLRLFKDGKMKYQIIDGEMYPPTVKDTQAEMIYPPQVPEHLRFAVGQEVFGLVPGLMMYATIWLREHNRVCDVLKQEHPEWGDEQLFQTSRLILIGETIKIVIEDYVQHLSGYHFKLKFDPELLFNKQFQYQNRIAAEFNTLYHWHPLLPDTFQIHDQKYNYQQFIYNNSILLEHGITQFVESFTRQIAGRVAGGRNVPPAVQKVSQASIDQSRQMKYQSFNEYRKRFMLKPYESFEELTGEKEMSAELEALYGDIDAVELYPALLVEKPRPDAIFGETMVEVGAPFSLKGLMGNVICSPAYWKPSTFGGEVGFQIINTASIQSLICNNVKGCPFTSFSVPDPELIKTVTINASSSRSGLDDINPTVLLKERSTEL
Nature of the series: Human COX-2 inhibitor screening assay kit (Cayman). The format is biochemical. To be noted: mean ± standard deviation of three replicates; read-out: COX-2 Inhibition IC50. Here is the method: COX-2 enzyme and tested compounds at various concentrations were prepared in the reaction buffer (0.1 M Tris-HCl, pH 8.0, containing 5 mM EDTA and 2 mM phenol) containing heme. […] The quenched reactions were incubated at room temperature for 5 min to produce prostaglandin F2α. Dilutions were made with the ELISA buffer and measured by using a PGE2 ELISA kit according to the manufacturer’s instruction.

The next series in a line: in vitro. The format is cell-based, human. The following applies: human. Here is the method: (§1) The effect of oxyresveratrol and its derivatives on the viability of normal human fibroblasts (MRC-5 cells) were determined by MTT assay. MRC-5 cells were diluted to 2 × 10^5 cells/mL with a complete medium. The cells (100 µL) were seeded in the wells of the sterile 96-well cell culture plate. After incubation at 37 °C in CO2 for 24 h, the cells were treated with different concentrations of sample compounds (100 µL) and doxorubicin as a positive control (100 µL). After incubation for 48 h, MTT solution (20 µL of 5 mg/mL) was added to each well and incubated for 3 h. After that, the complete medium was removed. Then, the cells were lysed with DMSO (100 µL). The yellow MTT dye was reduced by succinic dehydrogenase in the mitochondria of viable cells to purple formazan crystals. After that, absorbance (OD) was measured by a microplate reader at 570 nm. The percentage of cytotoxicity was determined with Equation (1) below. (1) Cell viability(%)=OD of treated cells/OD of control cells×100^

For the next series, the system named is MRC-5 cells. Briefly: in vitro. Format: cell-based, human. Here is the method: as §1

In the case of `Oc1cc(O)cc(/C=C/c2ccc(O)cc2O)c1` [Compound 1, trans-2,3′,4,5′-tetrahydroxystilbene], the IC50 on human COX-2 amounted to 14.5 ± 2.04 µM. In “in vitro”, this compound displayed a CC50 at 48 h of 57.5 ± 2.34 µM.

Consider `COc1cc(C=Cc2ccc(OC)cc2OC)cc(OC)c1` [Compound 2, 2,3′,4,5′-tetramethoxystilbene], for which, on human COX-2, the IC50 worked out at 25 ± 2.34 µM. This compound also gave a CC50 at 48 h in “in vitro” of 118 ± 2.69 µM.

`CC(=O)Oc1cc(C=Cc2ccc(OC(C)=O)cc2OC(C)=O)cc(OC(C)=O)c1` [Compound 3, 2,3′,4,5′-tetraacetoxystilbene]: the IC50 at human COX-2 came to 23 ± 2.02 µM. Besides, in “in vitro”, the CC50 at 48 h came out at 77.7 ± 3.07 µM.

As to `Oc1cc(O)cc(CCc2ccc(O)cc2O)c1` [Compound 4, 2,3′,4,5′-tetrahydroxybibenzyl], the IC50 at human COX-2 stood at 11.5 ± 1.54 µM. It took 106 ± 3.86 µM to reach half-maximal cytotoxicity in the series “in vitro” (CC50 at 48 h). Besides, in the series on MRC-5 cells, the “cytotoxicity to normal cell lines (in words)” value is “very low cytotoxicity”.

`COc1cc(CCc2ccc(OC)cc2OC)cc(OC)c1` [Compound 5, 2,3′,4,5′-tetramethoxybibenzyl] had a melting point of 44.7 to 46.8 °C. In addition, the IC50 on human COX-2 came to 18.1 ± 2.07 µM. The compound further came in with a half-maximal cytotoxic concentration (CC50) at 48 h in the series “in vitro” of 130 ± 3.04 µM.

For `CC(=O)Oc1cc(CCc2ccc(OC(C)=O)cc2OC(C)=O)cc(OC(C)=O)c1` [Compound 6, 2,3′,4,5′-tetraacetoxybibenzyl], the melting point was in the range of 72.3 to 73.3 °C. Further, the IC50 at human COX-2 stood at 19 ± 2.01 µM. For the same compound, in “in vitro”, half-maximal cytotoxicity (CC50 at 48 h) was put at 121 ± 2.37 µM.

`COc1cc(OC)cc(C(F)C(OC)c2ccc(OC)cc2OC)c1` (stereo not drawn) [Compound 8] showed a CC50 at 48 h in “in vitro” of 53.04 ± 0.22 µM.

In the case of `CC(=O)Oc1cc(OC(C)=O)cc(C(F)C(F)c2ccc(OC(C)=O)cc2OC(C)=O)c1` (stereo not drawn) [Compound 9], the CC50 at 48 h in the series “in vitro” came out at 11.7 ± 1.35 µM.

`COc1cccc2c1C(=O)c1c(O)c3c(c(O)c1C2=O)C[C@@](O)(C(=O)CO)C[C@@H]3O[C@H]1C[C@H](N)[C@H](O)[C@H](C)O1` [doxorubicin, reference compound] registered a CC50 at 48 h in the series “in vitro” greater than 100 µM.
